For assay [1], the system named is isolated working hearts from control and insulin-resistant JCR:LA-cp rats. Nature of the assay: Inotropic effect and energy state in isolated working heart model. Set-up: species or system rat. The conditions noted are these: compared with vehicle perfused hearts.
Description: Following perfusions, high energy phosphate nucleotide concentrations were measured by high performance liquid chromatography (HPLC) (Ally, A and Park, G. Rapid determination of creatine, phosphocreatine, purine bases and nucleotides (ATP, ADP, AMP, GTP, GDP) in heart biopsies by gradient ion-pair reversed-phase liquid chromatography. Journal of Chromatography. 1992; 575: 19-27).
The next assay deals with T1, human GLP-1R (Homo sapiens, UniProt P43220).
T1 construct: expressed in transfected cells; host or cells: HEK293
Briefly: cAMP formation in HEK293 cells expressing human GLP-1R. The following applies: 15 min at 37° C. The class given is cell-based. The procedure, abridged:
(§1)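 Test peptides at rising concentrations were incubated 15 min at 37° C in Tyrode buffer containing 6 mM glucose and 100 μM IBMX.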
(cAMP levels reflect the balance of adenylyl cyclase and phosphodiesterase activity.)

The target of another assay is T2, human glucagon receptor (Homo sapiens, UniProt P47871).
T2 construct: expressed in transfected cells; host or cells: HEK293
T2 sequence (P47871 26-477): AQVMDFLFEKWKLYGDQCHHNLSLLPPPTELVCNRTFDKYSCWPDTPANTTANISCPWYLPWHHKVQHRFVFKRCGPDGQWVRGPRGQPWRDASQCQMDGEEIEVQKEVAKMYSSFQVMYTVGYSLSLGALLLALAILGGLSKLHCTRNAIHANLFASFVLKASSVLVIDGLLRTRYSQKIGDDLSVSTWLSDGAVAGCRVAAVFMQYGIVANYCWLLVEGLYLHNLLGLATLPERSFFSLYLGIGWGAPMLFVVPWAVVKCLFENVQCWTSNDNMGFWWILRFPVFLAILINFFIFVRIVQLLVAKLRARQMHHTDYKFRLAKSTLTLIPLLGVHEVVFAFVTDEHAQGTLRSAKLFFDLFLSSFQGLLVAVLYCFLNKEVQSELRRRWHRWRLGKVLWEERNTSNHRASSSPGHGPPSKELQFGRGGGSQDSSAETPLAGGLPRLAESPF
Nature of the assay: cAMP formation in HEK293 cells expressing the human glucagon receptor. Format: cell-based. The conditions noted are these: 15 min at 37° C., read-out: EC50 (nM) GuR. The method, boiled down:
as §1

The subject of assay [2] is anesthetized male Sprague-Dawley rats. Briefly: Inotropic effect in vivo in anaesthetized rats (stroke work, heart rate).
Excerpt: The rats were exposed to 5% isoflurane in 1:2 N2O:O2 until anesthesia were established.
A catheter was inserted into the left femoral vein for drug administration and a pressure-volume catheter was inserted into the left ventricle via the right carotid artery. After instrumentation, isoflurane was delivered in pure O2 during the experiment.
The horizontal line marks 40% increase in stroke work, which was defined as the maximal increase that should be obtained during the experiment.

The values that follow come from US20130157953A1, “TREATMENT OF CARDIAC CONDITIONS” (Zealand Pharma A/S, priority 2010, published 2013).

Numbered stars: 1 amine (or outer) side, 2 acyl side, 3 side chain; on linkers, the order of the positions; unused ones are H or OH. Square brackets hold non-standard residues; d marks the D form. Side chains are listed from the residue outwards. Peptide text beside a SMILES is read from it. * marks the point of attachment. γGlu = O=C(O)[C@H](CCC(=O)[*:2])N[*:1]; Palmitoyl = CCCCCCCCCCCCCCCC(=O)*; Aib = CC(C)(N)C(=O)O

T1 sequence (P43220 24-463): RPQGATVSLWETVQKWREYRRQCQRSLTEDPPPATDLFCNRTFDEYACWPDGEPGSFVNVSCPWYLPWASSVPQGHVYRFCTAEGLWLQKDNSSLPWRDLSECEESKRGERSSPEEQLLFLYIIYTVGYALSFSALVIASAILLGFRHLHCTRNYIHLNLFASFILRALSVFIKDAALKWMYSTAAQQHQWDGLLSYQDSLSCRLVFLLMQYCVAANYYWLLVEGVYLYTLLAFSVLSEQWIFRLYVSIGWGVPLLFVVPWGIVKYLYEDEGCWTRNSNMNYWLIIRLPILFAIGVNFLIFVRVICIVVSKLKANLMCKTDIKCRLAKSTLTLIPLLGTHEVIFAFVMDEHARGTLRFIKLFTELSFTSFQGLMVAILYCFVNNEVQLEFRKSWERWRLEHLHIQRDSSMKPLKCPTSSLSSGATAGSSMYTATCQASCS

Take “H-HSQGTFTSDYSKYLDRARADDFVAWLKST-NH2 [Compound 12]”: the “energetic state of the hearts” value in assay [1] was “not significantly different from vehicle perfused hearts”.

With `CCCCCCCCCCCCCCCC(=O)N[C@@H](CCC(=O)NCCCC[C@H](NC(=O)[C@H](CO)NC(=O)[C@H](CC(=O)O)NC(=O)[C@H](CC(C)C)NC(=O)[C@H](Cc1ccc(O)cc1)NC(=O)[C@H](CCCCN)NC(=O)[C@H](CO)NC(=O)[C@H](Cc1ccc(O)cc1)NC(=O)[C@H](CC(=O)O)NC(=O)[C@H](CO)NC(=O)[C@@H](NC(=O)[C@H](Cc1ccccc1)NC(=O)[C@@H](NC(=O)CNC(=O)[C@H](CCC(N)=O)NC(=O)C(C)(C)NC(=O)[C@@H](N)Cc1c[nH]cn1)[C@@H](C)O)[C@@H](C)O)C(=O)N[C@@H](C)C(=O)N[C@@H](C)C(=O)N[C@@H](Cc1c[nH]cn1)C(=O)N[C@@H](CC(=O)O)C(=O)N[C@@H](Cc1ccccc1)C(=O)N[C@H](C(=O)N[C@@H](CCC(=O)O)C(=O)N[C@@H](Cc1c[nH]c2ccccc12)C(=O)N[C@@H](CC(C)C)C(=O)N[C@@H](CC(C)C)C(=O)N[C@@H](CCCNC(=N)N)C(=O)N[C@@H](C)C(N)=O)C(C)C)C(=O)O` [Compound 206] (H-H[Aib]QGTFTSDYSKYLDSK([γGlu-Palmitoyl])AAHDFVEWLLRA-NH2), the results for the EC50 on human GLP-1R and at human glucagon receptor were 0.09 nM and 0.16 nM, respectively. Further, the “duration of strokework increase” value in assay [2] (after end of compound infusion, during final vehicle infusion) is “prolonged increase in strokework that outlasted the compound infusion”. The molecule also yielded an increase in strokework in assay [2] (i.v. infusion, at a given infusion rate (up to 2.5 nmol/kg/min), 40% set as end point) of 40%.

What is called EC50 is the concentration at which the effect is half-maximal.
